According to US6346201B1, “Ozonated solutions of tetrasilver tetroxide” (priority 2000, dated 2002):
Where two headings read alike, the source gives them in different places.

Experiments:
Bacillus subtilis spores = experiment: Bacillus subtilis spore survival by MALS, AODC and 24-hour CFU count; type: cell-based
Protocol: The efficacy of ozone in the absence of tetrasilver tetroxide was evaluated by challenging Bacillus subtilis spores with 2 ppm ozone and measuring the survival rate over time by MALS, acridine orange direct counts (AODC) and by counting colony forming units (CFU) at 24 hours.
Bacillus subtilus spore suspensions in water were challenged with 2 ppm tetrasilver tetroxide and […] ozone to evaluate the killing efficacy of the combination. The survival rate over time was measured by MALS, AODC and counting colony forming units at 24 hours.

[1] = Protocol: Ozone concentrations were measured by a chemical oxidation of indigo dye by using an indigo dye […] manufactured by HACH, Inc.
6.1 mg/L (6.1 ppm) of ozone was provided in deionized, distilled water over a 15 minute period. The solution was allowed to stand with stirring by a magnetic stirrer over a 24-hour period, taking periodic readings of the ozone concentration.

E. coli K12 = conditions: 10 ppm or less tetrasilver tetroxide, within 30 minutes, other studies; cited from earlier work
E. coli = experiment: Ozone kill of E. coli test culture; type: cell-based; conditions: 3.2 ppm ozone, 1 minute
Protocol: (§1) Ozone is, of course, effective against enteric pathogens. For example, adding 3.2 ppm 03 to a test culture kills 1.95×10^6 cells/mL of E. coli in 1 minute and kills 1.5×10^6 cells/mL of P. aeruginosa in 1 minute.

P. aeruginosa = experiment: Ozone kill of P. aeruginosa test culture; type: cell-based; conditions: 3.2 ppm ozone, 1 minute
Protocol: as §1

[2] = B. subtilis spores, 2 ppm ozone, treatment time 0
[3] = B. subtilis spores, 2 ppm ozone, treatment time 5
[4] = B. subtilis spores, 2 ppm ozone, treatment time 10
[5] = B. subtilis spores, 2 ppm ozone, treatment time 15
[6] = B. subtilis spores, 2 ppm ozone, treatment time 20
[7] = B. subtilis spores, 2 ppm ozone, treatment time 30

For `[Ag+].[Ag+].[Ag+].[Ag+].[O-2].[O-2].[O-2].[O-2]` [tetrasilver tetroxide], the “antimicrobial effect (MALS graph, FIG. 3)” value (Bacillus subtilis spores; sixty-minute treatment with 2 ppm tetrasilver tetroxide) is given as “little more effective than the untreated control”, the “measurable oxidation as measured by the indigo dye method” value ([1]; without ozone) is given as “neither” and the “kills % of E. coli K12 strain” value (E. coli K12) is given as 100%.
In the case of `O=[O+][O-]` [ozone], the “MALS log intensity vs time of exposure (FIG. 1)” value (Bacillus subtilis spores; B. subtilis spores, 2 ppm ozone, increasing time of exposure) is reported as “reduction in the log intensity”, the “24-Hour Count” value (Bacillus subtilis spores; [2]) is reported as 2.10 × 10^6 cfu/mL and the “24-Hour Count % AODC” value (Bacillus subtilis spores; [2]) is reported as 100 % AODC. For the same compound, the “24-Hour Count % control” value (Bacillus subtilis spores; [2]) was 100 % control, the AODC (Bacillus subtilis spores; [2]) was 2.34 × 10^6 spores/mL and the AODC % control (Bacillus subtilis spores; [2]) was 100 % control. The MALS % control (Bacillus subtilis spores; [2]) was 100 % control, the MALS intensity (Bacillus subtilis spores; [2]) was 2436.6 and the “24-Hour Count” value (Bacillus subtilis spores; [3]) was 1.23 × 10^6 cfu/mL. For the same compound, the “24-Hour Count % AODC” value (Bacillus subtilis spores; [3]) was 76.9 % AODC, the “24-Hour Count % control” value (Bacillus subtilis spores; [3]) was 58.5 % control and the AODC (Bacillus subtilis spores; [3]) was 1.6 × 10^6 spores/mL. For the same compound, the AODC % control (Bacillus subtilis spores; [3]) was 68.3 % control, the MALS % control (Bacillus subtilis spores; [3]) was 65.33 % control and the MALS intensity (Bacillus subtilis spores; [3]) was 1591.92. The “24-Hour Count” value (Bacillus subtilis spores; [4]) was 1.68 × 10^5 cfu/mL, the “24-Hour Count % AODC” value (Bacillus subtilis spores; [4]) was 14.5 % AODC and the “24-Hour Count % control” value (Bacillus subtilis spores; [4]) was 8.0 % control. The AODC (Bacillus subtilis spores; [4]) was 1.16 × 10^6 spores/mL, the AODC % control (Bacillus subtilis spores; [4]) was 49.5 % control and the MALS % control (Bacillus subtilis spores; [4]) was 51.89 % control. For the same compound, the MALS intensity (Bacillus subtilis spores; [4]) was 1264.26, the “24-Hour Count” value (Bacillus subtilis spores; [5]) was 1.80 × 10^3 cfu/mL and the “24-Hour Count % AODC” value (Bacillus subtilis spores; [5]) was 0.14 % AODC. The “24-Hour Count % control” value (Bacillus subtilis spores; [5]) was 0.09 % control, the AODC (Bacillus subtilis spores; [5]) was 1.29 × 10^6 spores/mL and the AODC % control (Bacillus subtilis spores; [5]) was 55.1 % control. The MALS % control (Bacillus subtilis spores; [5]) was 42.67 % control, the MALS intensity (Bacillus subtilis spores; [5]) was 1039.64 and the “24-Hour Count” value (Bacillus subtilis spores; [6]) was 1.82 × 10^2 cfu/mL. For the same compound, the “24-Hour Count % AODC” value (Bacillus subtilis spores; [6]) was 0.04 % AODC, the “24-Hour Count % control” value (Bacillus subtilis spores; [6]) was 0.009 % control and the AODC (Bacillus subtilis spores; [6]) was 4.87 × 10^5 spores/mL. It also gave an AODC % control (Bacillus subtilis spores; [6]) of 20.8 % control, an MALS % control (Bacillus subtilis spores; [6]) of 34.94 % control and an MALS intensity (Bacillus subtilis spores; [6]) of 851.5. The “24-Hour Count” value (Bacillus subtilis spores; [7]) was 10 cfu/mL, the “24-Hour Count % AODC” value (Bacillus subtilis spores; [7]) was 0.002 % AODC and the “24-Hour Count % control” value (Bacillus subtilis spores; [7]) was 0.00005 % control. The AODC (Bacillus subtilis spores; [7]) was 5.03 × 10^5 spores/mL, the AODC % control (Bacillus subtilis spores; [7]) was 21.5 % control and the MALS % control (Bacillus subtilis spores; [7]) was 27.96 % control. For the same compound, the MALS intensity (Bacillus subtilis spores; [7]) was 681.2, the “antimicrobial effect (MALS graph, FIG. 3)” value (Bacillus subtilis spores; twenty-minute treatment with 0.3 ppm ozone) was “significant killing effect” and the cells killed (E. coli) was 1.95×10^6 cells/mL. The cells killed (P. aeruginosa) was 1.5×10^6 cells/mL, the “ozone at 18 hours relative to that expected in the absence of tetrasilver tetroxide” value ([1]; 2 ppm tetrasilver tetroxide added, 18 hours) was “approximately an order of magnitude higher” and the ozone concentration ([1]; 2 ppm tetrasilver tetroxide added, after 18 hours) was 0.12 ppm. The ozone oxidizing activity ([1]; 2 ppm tetrasilver tetroxide added, by 24 hours) was 0.03 ppm, the half-life of ozone ([1]; 6.1 ppm ozone initially in deionized, distilled water, no tetrasilver tetroxide) was “approximately 2 hours” and the ozone concentration ([1]; 6.1 ppm ozone initially in deionized, distilled water, stirred, by 2 hours) was 3 ppm. It also gave an ozone concentration ([1]; 6.1 ppm ozone initially in deionized, distilled water, stirred, by 18 hours) of 0.01 ppm.
